Earlier results as cited in PubChem BioAssay AID1259409 (Chemical Carcinogenesis Research Information System (CCRIS), 2018).

Test system: rodent chemically induced tumor inhibition, incidence and multiplicity
Experiment: CCRIS tumor inhibitor studies

## C[N+](C)(C)CCO
Carcinogen: 3'-METHYL-4-DIMETHYLAMINOAZOBENZENE, 55-80-1, Dose [Inhibitor]: 0.1% IN DIET DAILY FOR 4 WK STARTING AFTER 4 WK OF CARCINOGEN TREATMENT (STUDY DURATION: 20 WK), Route [Inhibitor]: ORAL, Species: RAT, Target Tissue: Type of Lesion: LIVER: TUMOR, Dose [Carcinogen]: 0.064% IN DIET DAILY FOR 8 WK 4 WK BEFORE AND ANOTHER 4 WK AFTER AGENT TREATMENT, Promoter: NONE USED
  tumour outcome (control, treated, inhibition, significance): 7/9 (78%), 9/12 (75%), 4%, not calculated
Carcinogen: DIETHYLNITROSAMINE, 55-18-5, Dose [Inhibitor]: 0, 1% IN DIET BEGINNING 1 WK POST CARCINOGEN DOSE (STUDY DURATION: 52 WK), Route [Inhibitor]: ORAL, Species: MOUSE, Strain/Sex: C3H/MALE, Target Tissue: Type of Lesion: LIVER: ADENOMA, Dose [Carcinogen]: 150 MG/KG ONCE, Promoter: PHENOBARBITAL, 50-06-6
  tumour outcome (control, treated, inhibition, significance): 16%, 11%, 31%, not calculated
Carcinogen: DIETHYLNITROSAMINE, 55-18-5, Dose [Inhibitor]: 0, 1% IN DIET BEGINNING 1 WK POST CARCINOGEN DOSE (STUDY DURATION: 52 WK), Route [Inhibitor]: ORAL, Species: MOUSE, Strain/Sex: C3H/MALE, Target Tissue: Type of Lesion: LIVER: CARCINOMA, Dose [Carcinogen]: 150 MG/KG ONCE, Promoter: PHENOBARBITAL, 50-06-6
  tumour outcome (control, treated, inhibition, significance): 74%, 72%, 3%, not calculated
Carcinogen: DIETHYLNITROSAMINE, 55-18-5, Dose [Inhibitor]: 0, 1% IN DIET BEGINNING 1 WK POST CARCINOGEN DOSE (STUDY DURATION: 52 WK), Route [Inhibitor]: ORAL, Species: MOUSE, Strain/Sex: C3H/MALE, Target Tissue: Type of Lesion: LUNG: ADENOMA OR ADENOCARCINOMA, Dose [Carcinogen]: 150 MG/KG ONCE, Promoter: NONE USED
  tumour outcome (control, treated, inhibition, significance): 6/14 (43%), 13/24 (54%), -26%, not calculated
Carcinogen: DIETHYLNITROSAMINE, 55-18-5, Dose [Inhibitor]: 0, 1% IN DIET BEGINNING 1 WK POST CARCINOGEN DOSE (STUDY DURATION: 52 WK), Route [Inhibitor]: ORAL, Species: MOUSE, Strain/Sex: C3H/MALE, Target Tissue: Type of Lesion: LUNG: ADENOMA OR ADENOCARCINOMA, Dose [Carcinogen]: 150 MG/KG ONCE, Promoter: PHENOBARBITAL, 50-06-6
  tumour outcome (control, treated, inhibition, significance): 7/19 (37%), 4/18 (22%), 41%, not calculated
Carcinogen: DIETHYLNITROSAMINE, 55-18-5, Dose [Inhibitor]: 0, 1% IN DIET BEGINNING 1 WK PRIOR TO POST CARCINOGEN DOSE (STUDY DURATION: 52 WK), Route [Inhibitor]: ORAL, Species: MOUSE, Strain/Sex: C3H/MALE, Target Tissue: Type of Lesion: LIVER: ADENOMA, Dose [Carcinogen]: 150 MG/KG ONCE, Promoter: NONE USED
  tumour outcome (control, treated, inhibition, significance): 14%, 21%, -50%, not calculated
Carcinogen: ETHIONINE, 13073-35-3, Dose [Inhibitor]: 2.1 MMOL/100 G DIET DAILY FOR 8 MO ADMINISTERED SIMULTANEOUSLY WITH CARCINOGEN FOLLOWED BY 2 MO ON BASAL DIET (STUDY DUR, Route [Inhibitor]: ORAL, Species: RAT, Strain/Sex: WISTAR/MALE, FEMALE, Target Tissue: Type of Lesion: LIVER: CARCINOMA, Dose [Carcinogen]: 0.25% OF DIET DAILY FOR 8 MO, Promoter: NONE USED
  tumour outcome (control, treated, inhibition, significance): 9/10 (90%), 5/9 (56%), 38%, not calculated
Carcinogen: ETHIONINE, 13073-35-3, Dose [Inhibitor]: 4.2 MMOL/100 G DIET DAILY FOR 8 MO ADMINISTERED SIMULTANEOUSLY WITH CARCINOGEN FOLLOWED BY 4 MO ON BASAL DIET (STUDY DUR, Route [Inhibitor]: ORAL, Species: RAT, Strain/Sex: WISTAR/MALE, Target Tissue: Type of Lesion: LIVER: CARCINOMA, Dose [Carcinogen]: 0.25% OF DIET DAILY FOR 8 MO, Promoter: NONE USED
  tumour outcome (control, treated, inhibition, significance): 8/8 (100%), 6/10 (60%), 40%, not calculated
Carcinogen: ETHIONINE, 13073-35-3, Dose [Inhibitor]: 5.7 MMOL/100 G DIET DAILY FOR 8 MO ADMINISTERED SIMULTANEOUSLY WITH CARCINOGEN FOLLOWED BY 4 MO ON BASAL DIET (STUDY DUR, Route [Inhibitor]: ORAL, Species: RAT, Strain/Sex: WISTAR/MALE, Target Tissue: Type of Lesion: LIVER: CARCINOMA, Dose [Carcinogen]: 0.25% OF DIET DAILY FOR 8 MO, Promoter: NONE USED
  tumour outcome (control, treated, inhibition, significance): 8/8 (100%), 7/10 (70%), 30%, not calculated

## CCCCCCCCCCCCCCCCCC(=O)O
Carcinogen: BENZO[A]PYRENE, 50-32-8, Dose [Inhibitor]: 4 MG IN 0.2 ML ACETONE 3/WK ADMINISTERED SIMULTANEOUSLY WITH CARCINOGEN FOR DURATION OF STUDY (STUDY DURATION: 440 D), Route [Inhibitor]: DERMAL, Species: MOUSE, Strain/Sex: ICR/FEMALE, Target Tissue: Type of Lesion: SKIN: PAPILLOMA, Dose [Carcinogen]: 5 UG IN 0.2 ML ACETONE THAT ALSO CONTAINED AGENT 3/WK, Promoter: NONE USED
  tumour outcome (control, treated, inhibition, significance): 16/50 (32%), 25/50 (50%), -56%, not calculated
Carcinogen: BENZO[A]PYRENE, 50-32-8, Dose [Inhibitor]: 4 MG IN 0.2 ML ACETONE 3/WK ADMINISTERED SIMULTANEOUSLY WITH CARCINOGEN FOR DURATION OF STUDY (STUDY DURATION: 440 D), Route [Inhibitor]: DERMAL, Species: MOUSE, Strain/Sex: ICR/FEMALE, Target Tissue: Type of Lesion: SKIN: SQUAMOUS CARCINOMA, Dose [Carcinogen]: 5 UG IN 0.2 ML ACETONE THAT ALSO CONTAINED AGENT 3/WK, Promoter: NONE USED
  tumour outcome (control, treated, inhibition, significance): 12/50 (24%), 7/50 (14%), 42%, not calculated

## Cc1cc(NC(=O)[C@H](CCCN=C(N)N)NC(=O)[C@H](CO)NC(=O)[C@H](Cc2ccccc2)NC(=O)OC(C)(C)C)cc2oc(=O)ccc12
Carcinogen: 1,2-DIMETHYLHYDRAZINE, 540-73-8, Dose [Inhibitor]: 0, 2429 UG/G IN DIET FOR 32 WK BEGINNING AT 24 D OF AGE (STUDY DURATION: 32 WK), Route [Inhibitor]: ORAL, Species: RAT, Strain/Sex: SPRAGUE-DAWLEY/MALE, Target Tissue: Type of Lesion: COLON: ADENOCARCINOMA, Dose [Carcinogen]: 20 MG/KG 1/WK FOR 15 WK BEGINNING ON D 37, Promoter: NONE USED
  tumour outcome (control, treated, inhibition, significance): 19/22 (86%), 11/16 (69%), 20%, not calculated
Carcinogen: 1,2-DIMETHYLHYDRAZINE, 540-73-8, Dose [Inhibitor]: 0, 2429 UG/G IN DIET FOR 32 WK BEGINNING AT 24 D OF AGE (STUDY DURATION: 32 WK), Route [Inhibitor]: ORAL, Species: RAT, Strain/Sex: SPRAGUE-DAWLEY/MALE, Target Tissue: Type of Lesion: SMALL INTESTINE: ADENOCARCINOMA, Dose [Carcinogen]: 20 MG/KG 1/WK FOR 15 WK BEGINNING ON D 37, Promoter: NONE USED
  tumour outcome (control, treated, inhibition, significance): 18/22 (82%), 10/16 (63%), 23%, not calculated

## Nc1ncn([C@H]2C[C@H](O)[C@@H](CO)O2)c(=O)n1
Carcinogen: 4-(METHYLNITROSAMINO)-1-(3-PYRIDIYL)-1-BUTANONE, 64091-91-4, Dose [Inhibitor]: 0, 1 MG/KG 3/WK FOR 12 WK THEN 0, 0.5 MG/KG FOR 12 WK BEGINNING 1 WK PRIOR TO CARCINOGEN TREATMENT (STUDY DURATION: 24 W, Dose [Inhibitor]: 0, 1 MG/KG 3/WK FOR 12 WK THEN 0, 0.5 MG/KG FOR 12 WK BEGINNING 1 WK PRIOR TO CARCINOGEN TREATMENT (STUDY DURATION: 24 W, Route [Inhibitor]: INTRAPERITONEAL, Species: MOUSE, Strain/Sex: C3AF1/MALE, Target Tissue: Type of Lesion: LUNG: TUMOR, Dose [Carcinogen]: 3.9 MG/MOUSE (TOTAL DOSE) ADMINISTERED IN TWO WEEKLY DOSES OF 1.9 TO 2 MG, Promoter: NONE USED
  tumour outcome (control, treated, inhibition, significance): 100%, 77%, 23%, not significant

## CC(=O)OCC(=O)[C@H]1CC[C@H]2[C@@H]3CCC4=CC(=O)CC[C@]4(C)[C@H]3CC[C@]12C
Carcinogen: 1,2-DIMETHYLHYDRAZINE DIHYDROCHLORIDE, 306-37-6, Dose [Inhibitor]: 0, 10 MG/KG IN PEANUT OIL ON DAYS 1 AND 3 OF STUDY THEN 1/WK FOR 30 WK (STUDY DURATION: 31 WK), Route [Inhibitor]: SUBCUTANEOUS, Species: RAT, Strain/Sex: SPRAGUE-DAWLEY/MALE, Target Tissue: Type of Lesion: COLON: ADENOCARCINOMA, Dose [Carcinogen]: 9 MG/KG 1/WK FOR 7 WK THEN 19.4 MG/KG 1/WK FOR 13 WK, Promoter: NONE USED
  tumour outcome (control, treated, inhibition, significance): 14/14 (100%), 13/13 (100%), 0%, not significant
Carcinogen: 1,2-DIMETHYLHYDRAZINE DIHYDROCHLORIDE, 306-37-6, Dose [Inhibitor]: 0, 10 MG/KG IN PEANUT OIL ON DAYS 1 AND 3 OF STUDY THEN 1/WK FOR 30 WK (STUDY DURATION: 31 WK), Route [Inhibitor]: SUBCUTANEOUS, Species: RAT, Strain/Sex: SPRAGUE-DAWLEY/MALE, Target Tissue: Type of Lesion: SMALL INTESTINE: ADENOCARCINOMA, Dose [Carcinogen]: 9 MG/KG 1/WK FOR 7 WK THEN 19.4 MG/KG 1/WK FOR 13 WK, Promoter: NONE USED
  tumour outcome (control, treated, inhibition, significance): 13/14 (93%), 9/13 (69%), 26%, not significant
